Test results from patent publication US20230167101A1, “NOVEL INHIBITORS OF HISTONE […] P300/CBP FOR CANCER THERAPY” (BAYLOR COLLEGE OF MEDICINE, priority 2020, published 2023).

Legend:
HAT domain of human p300 = target: T1, HAT domain of human p300 (Homo sapiens, UniProt Q09472); assay: p300 HAT inhibition assay (3H-Ac-CoA, histone H3 (1-21) peptide); assay type: biochemical; details: for IC50: read-out: IC50 against p300 HAT; for activity reduction relative to compound 12: p300 HAT
T1 construct: The HAT domain (1195-1673) of human p300 was cloned, inserted into pGEX-KG vector; made in house; host or cells: E. coli BL21-CodonPlus
T1 sequence (Q09472 1195-1673): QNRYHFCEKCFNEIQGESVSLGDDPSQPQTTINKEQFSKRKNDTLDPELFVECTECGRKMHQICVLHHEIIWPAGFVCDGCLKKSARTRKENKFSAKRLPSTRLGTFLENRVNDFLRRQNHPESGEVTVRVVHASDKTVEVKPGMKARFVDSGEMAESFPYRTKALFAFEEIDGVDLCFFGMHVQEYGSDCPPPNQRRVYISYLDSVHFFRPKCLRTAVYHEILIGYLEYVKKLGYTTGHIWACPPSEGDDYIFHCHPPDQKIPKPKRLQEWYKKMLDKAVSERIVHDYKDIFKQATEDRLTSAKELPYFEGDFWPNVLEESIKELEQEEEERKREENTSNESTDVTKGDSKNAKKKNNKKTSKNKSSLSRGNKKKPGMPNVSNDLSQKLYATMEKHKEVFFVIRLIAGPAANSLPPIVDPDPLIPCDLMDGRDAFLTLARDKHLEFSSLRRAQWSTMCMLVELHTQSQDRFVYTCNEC
Protocol: A biochemical assay to determine the activity and inhibition of recombinant HAT domain of human p300 was developed, using the substrate histone H3 (1-21) peptide and the ^3H-labeled cofactor Ac—CoA.
The HAT domain (1195-1673) of human p300 was cloned, inserted into pGEX-KG vector and the DNA sequence was verified by sequencing. The p300-HAT expression plasmid was transformed into E. coli BL21-CodonPlus strain (Agilent) and cultured at 37° C. in LB medium containing ampicillin (50 µg/mL) and chloramphenicol (34 µg/mL). After the optical density of the bacterial culture reached ~0.9 at 600 nm, p300 HAT expression was induced by adding 300 µM isopropylthiogalactoside (IPTG) at 18° C. for 48 hours. Cells were collected, lysed, centrifuged for 20 min at 20,000 rpm. The supernatant was subjected to column chromatography with glutathione sepharose resins. […] CBP, PCAF and Myst3 HATs were obtained using similar methods.
To determine inhibitory activity, a compound with concentrations ranging from 100 nM to 10 µM was incubated with p300-HAT (10 nM) in 20 µL of 50 mM phosphate buffer (pH = 7.0) containing 0.01% Brij-35 for 10 min at 25° C. […] After 30 min at 25° C., the reaction was stopped by adding 6 N formic acid (5 µL). 20 µL of reaction mixture was then transferred to a small piece of P81 filter paper (Whatman) that binds histone H3 peptide. The filter paper was washed 3x with 50 mM NaHCO3, dried, and transferred into a scintillation vial containing 2 mL of scintillation cocktail. Radioactivity on the filter paper was measured with a Beckman LS-6500 scintillation counter. IC50 values were obtained by using a standard sigmoidal dose response curve fitting in Prism (version 5.0, GraphPad Software, Inc., La Jolla, CA). IC50 values were the mean values from at least three experiments.

Kasumi-1 leukemia cells = assay: Cellular histone acetylation, Western blot; assay type: cell-based; details: Kasumi-1 cells, 12 h, 5 and 10 µM
Protocol: Kasumi-1 leukemia cells were treated with increasing concentrations of these compounds for 12 h. Histone was extracted and subjected to electrophoresis separation and Western blot staining to determine levels of acetylation at various lysine residues. […] H3K27 seems to be the most sensitive cellular substrate of p300 HAT. […] This might be due to different mode of inhibition or cell permeability for the two compounds.
About 10^6 Kasumi-1 cells per well were incubated with compound 11 at 0, 5 and 10 µM for 12 hours. Histone proteins were extracted using EpiQuik total histone extraction kit (Epigentek), according to the manufacturer’s protocol. Equal amounts of histones (2 µg) were separated on SDS-PAGE and transferred to PVDF membranes. The blots were probed with primary antibodies against H3K9Ac, H3K18Ac, H3K27Ac and H3 (Cell Signaling), followed by anti-rabbit IgG (Thermo Scientific) secondary antibodies.

SMILES	IC50 (HAT domain of human p300)	also measured
CC(C)(C)c1ccc(-c2cc(C(=O)NCC3CCNCC3)sc2-c2ccc(C(C)(C)C)cc2)cc1 [Compound 1]	8.6 µM	
c1cc(-c2ccc(-c3cc(CNCC4CCNCC4)sc3-c3ccc(-c4ccoc4)cc3)cc2)co1 [Compound 11]	1.7 µM	
CC(C)(C)c1ccc(-c2cc(COCC3CCNCC3)sc2-c2ccc(C(C)(C)C)cc2)cc1 [Compound 13]		inhibitory activity against p300 HAT (in words) (HAT domain of human p300): complete loss of inhibitory activity
CC(C)(C)c1ccc(-c2cc(CNCCC3CCNCC3)sc2-c2ccc(C(C)(C)C)cc2)cc1 [Compound 15]	2.2 µM	activity reduction relative to compound 12 (HAT domain of human p300): ~3 fold
CC(C)(C)c1ccc(-c2cc(CNCCCN)sc2-c2ccc(C(C)(C)C)cc2)cc1 [Compound 16]	3 µM	
CN(Cc1cc(-c2ccc(C(C)(C)C)cc2)c(-c2ccc(C(C)(C)C)cc2)s1)CC1CCNCC1 [Compound 20]	4.4 µM	
CC(C)(C)c1ccc(-c2cc(CN(C=O)CC3CCNCC3)sc2-c2ccc(C(C)(C)C)cc2)cc1 [Compound 21]	7 µM	
CC(C)c1ccc(-c2cc(CNCC3CCNCC3)sc2-c2ccc(C(C)C)cc2)cc1 [Compound 22]	5.4 µM	activity reduction relative to compound 12 (HAT domain of human p300): ~ 8 x
CCCCc1ccc(-c2cc(CNCC3CCNCC3)sc2-c2ccc(CCCC)cc2)cc1 [Compound 23]		inhibitory activity against p300 HAT (in words) (HAT domain of human p300): Loss of activity
CC(C)(C)c1ccc(-c2cc(CNCC3CCNCC3)oc2-c2ccc(C(C)(C)C)cc2)cc1 [Compound 34]	9.8 µM	
CC1=NN(c2ccc(C(=O)O)cc2)C(=O)/C1=C\c1ccc(-c2cc(C)c(C)cc2[N+](=O)[O-])o1 [Compound C646, reference compound]		cellular acetylation of histone H3K9, H3K18 and H3K27 (Kasumi-1 leukemia cells): inhibited
